In article PMC8565842, “Structural snapshots of human PepT1 and PepT2 reveal mechanistic insights into substrate and drug transport across epithelial membranes” (Science Advances, 2021):

Biological target: T1, HsPepT2 (Homo sapiens, UniProt Q16348)
T1 construct: The wild-type HsPepT2 gene was cloned into a pXLG vector; expressed in transfected cells; host or cells: HEK293F cells, transient transfection (pXLG vector)
T1 sequence (Q16348 1-729): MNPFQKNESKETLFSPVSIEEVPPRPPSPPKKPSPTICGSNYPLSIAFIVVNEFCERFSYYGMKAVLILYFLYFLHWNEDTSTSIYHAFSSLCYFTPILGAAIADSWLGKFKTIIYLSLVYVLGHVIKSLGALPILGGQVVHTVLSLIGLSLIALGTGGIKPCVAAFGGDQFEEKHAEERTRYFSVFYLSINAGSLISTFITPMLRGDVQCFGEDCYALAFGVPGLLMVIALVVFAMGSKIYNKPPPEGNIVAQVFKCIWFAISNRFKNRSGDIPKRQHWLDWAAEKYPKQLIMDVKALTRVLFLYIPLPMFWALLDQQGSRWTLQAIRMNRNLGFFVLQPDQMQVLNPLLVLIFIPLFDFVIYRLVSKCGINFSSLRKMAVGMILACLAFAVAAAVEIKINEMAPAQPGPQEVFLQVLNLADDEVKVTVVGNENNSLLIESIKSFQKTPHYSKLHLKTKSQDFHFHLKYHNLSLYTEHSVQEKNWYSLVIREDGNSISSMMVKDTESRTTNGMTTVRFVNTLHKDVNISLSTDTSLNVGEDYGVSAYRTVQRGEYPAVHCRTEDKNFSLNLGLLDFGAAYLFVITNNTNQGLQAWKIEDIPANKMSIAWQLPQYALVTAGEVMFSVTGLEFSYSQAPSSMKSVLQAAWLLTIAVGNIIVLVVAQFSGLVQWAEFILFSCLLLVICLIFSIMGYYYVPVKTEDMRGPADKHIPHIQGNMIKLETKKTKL
Experiment: Whole-cell AK-AMCA uptake competition assay in HsPepT2-transfected HEK293F cells
Type: cell-based
Conditions: for IC50: HsPepT2-transfected HEK293F cells, 50 μM β-Ala-Lys-AMCA, pH 6.0, 10 min at 37°C, read-out: IC50, concentration-dependent competition of β-Ala-Lys-AMCA uptake
Experimental: The wild-type […]2 gene was cloned into a pXLG vector ([61]) containing an expression cassette composed of an N-terminal hexa-histidine tag followed by enhanced green fluorescent protein and a tobacco etch virus protease cleavage site. […] The reaction was stopped by adding 200 μl of ice-cold buffer, and the cells were then washed three times with the same buffer. Last, the cells were resuspended in 200 μl of buffer, and the fluorescence was measured in an M1000 microplate reader (TECAN) with excitation at 350 nm and emission at 450 nm. All experiments were performed in triplicates. […] For concentration-dependent uptake experiments, IC50 values were processed in GraphPad Prism 9.0 (GraphPad Software) using sigmoidal four-parameter curve fitting.

Row | Molecule | IC50 [µM] | Uptake of the fluorescent reporter after HsPepT2 overexpression (HEK293 cells overexpressing HsPepT2)
1 | CC(C)[C@H](N)C(=O)OCC(CO)OCn1cnc2c(=O)nc(N)[nH]c21 (stereo partly drawn) [valganciclovir] | 368.9 ± 1.5 | 
2 | NCC(=O)CCC(=O)O [5-aminolevulinic acid] | 373.5 ± 1.6 | 
3 | ß-Ala-Lys-AMCA |  | specific uptake
